Reference: patent publication US7820661B2, “Substituted gamma lactams as therapeutics agents” (Allergan, Inc., priority 2008, dated 2010)

System: lashes and adjacent hairs (hair growth)
Assay: Observation of lashes and adjacent hairs in glaucoma patients treated with bimatoprost in only one eye
Assay type: in vivo
Description: In the course of treating patients having glaucoma, treatment may only be appropriate in one eye. […] The lash appearance on the lids of the treated eyes would have appeared quite attractive if it represented a bilateral phenomenon. As a result of its asymmetric nature, the long lashes on one side could be construed as disturbing from a cosmetic standpoint. A systemic examination was preformed as a result of the asymmetric phenomenon. It soon became apparent that this altered appearance was not an isolated finding.
The changes in the lashes were apparent on gross inspection in several patients once attention was focused on the issue. In those with light colored hair and lashes, the differences were only seen easily with the aid of the high magnification and lighting capabilities of the slit lamp biomicroscope. In the course of glaucoma follow-up examination, attention is generally immediately focused on the eye itself. As a result of the high power magnification needed only one eye is seen at a time and the eye is seen at a high enough power that the lashes are not in focus. At these higher powers, any lash asymmetry between the two eyes is not likely to be noticed except by careful systematic comparison of the lashes and adjacent hairs of the eyelids of the two eyes. […]

**Q.** Which “differences in the lashes and adjacent hairs of the treated side” value (all patients taking the drug on a unilateral basis for longer than 6 months) does the source give for `CCNC(=O)CCC/C=C\C[C@@H]1[C@@H](/C=C/[C@@H](O)CCc2ccccc2)[C@H](O)C[C@@H]1O` [bimatoprost] here?
**A.** The value was “Definite differences could be identified to varying degrees”.

**Q.** What about the “appearance of lashes in the treated eye compared with the non-treated eye” value (glaucoma patient treated in one eye, treated vs non-treated eye) of the same compound?
**A.** The value was “longer, thicker, and fuller”.
